# Test results as given in patent publication US20260256925A1, “INDAZOLE DERIVATIVES AS ESTROGEN RECEPTOR DEGRADERS” (REGENTS OF THE UNIVERSITY OF MICHIGAN, priority 2022, published 2026).
# pIC50: −log10 of the molar value.
# How the values were obtained:
# [1] = biological target: T1, ER (Homo sapiens, UniProt P03372); test: In-cell Western (ICW) ER degradation assay in MCF-7 cells; assay type: cell-based; settings: for DC50 / ER MCF7 ICW Dmax (%): MCF-7 cells; for DC50: read-out: ER MCF7 ICW DC50
# T1 construct: endogenous in cells; probably T47D or MCF-7
# T1 sequence (P03372 1-595): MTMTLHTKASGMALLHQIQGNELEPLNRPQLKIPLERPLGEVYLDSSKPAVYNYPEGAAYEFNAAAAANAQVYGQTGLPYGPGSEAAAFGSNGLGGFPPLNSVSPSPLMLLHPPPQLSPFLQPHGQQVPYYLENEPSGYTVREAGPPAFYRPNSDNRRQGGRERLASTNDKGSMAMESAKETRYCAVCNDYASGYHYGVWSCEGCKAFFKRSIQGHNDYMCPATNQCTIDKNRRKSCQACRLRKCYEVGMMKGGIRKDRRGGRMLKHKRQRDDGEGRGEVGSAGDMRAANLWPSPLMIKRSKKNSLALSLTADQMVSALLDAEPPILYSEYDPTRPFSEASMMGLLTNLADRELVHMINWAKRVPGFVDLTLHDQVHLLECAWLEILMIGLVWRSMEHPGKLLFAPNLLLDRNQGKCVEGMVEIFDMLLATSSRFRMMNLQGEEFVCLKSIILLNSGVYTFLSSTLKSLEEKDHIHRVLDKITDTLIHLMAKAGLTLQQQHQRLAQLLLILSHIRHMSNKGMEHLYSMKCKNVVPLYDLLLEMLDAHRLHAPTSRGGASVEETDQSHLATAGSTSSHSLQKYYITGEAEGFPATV
# [2] = biological target: T1, ER; test: In-cell Western (ICW) ER degradation assay in T47D cells; assay type: cell-based; settings: for Dmax: T47D, read-out: ER T47D ICW Dmax (%)
# [3] = test system: T47D cells; test: CellTiter-Glo (CTG) cell proliferation assay in T47D cells; assay type: cell-based; settings: Homo sapiens, 144 h, Day 6
# From the text: (§1) CellTiter-Glo® (CTG) assays in MCF-7 and T47D cell lines.
# (§2) In vitro Assay: MCF-7 and T47D CTG assay
# [4] = biological target: T2, ERα_LBD (GST) (Homo sapiens, UniProt P03372); test: IC50 measurements for binding to ERα_LBD (GST), LanthaScreen TR-FRET ERα competitive binding assay; settings: Fluormone ES2 Green tracer, 60 min, read-out: ERα HTRF IC50
# T2 construct: ERα_LBD (GST) protein: 4 nM; purchased ThermoFisher A15887
# T2 sequence (P03372 311-547 limits assumed): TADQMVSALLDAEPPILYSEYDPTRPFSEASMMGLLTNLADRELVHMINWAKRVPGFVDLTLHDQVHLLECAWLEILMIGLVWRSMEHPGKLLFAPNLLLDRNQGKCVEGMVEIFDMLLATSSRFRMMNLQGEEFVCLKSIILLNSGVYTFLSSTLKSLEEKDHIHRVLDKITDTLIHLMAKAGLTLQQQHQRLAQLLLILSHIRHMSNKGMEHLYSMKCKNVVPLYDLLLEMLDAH
# Experimental: In vitro Assay: IC50 Measurements for binding to ERα_LBD (GST)·
# Final assay conditions: • 1. ERα_LBD (GST) protein: 4 nM • 2. Tb Anti-GST: 2 nM • 3. Fluormone ES2 Green tracer: 3 nM • 4. Incubation time: 60 min • 5. DMSO: 1% • 6. Assay buffer: Adding 1M DTT to Nuclear receptor Buffer K for final 5 mM DTT. • 7. ZPE: 1% DMSO • 8. HPE: 1 μM ARV_471 • 9. LanthaScreen® TR-FRET ERα Competitive Binding Assay (ThermoFisher, #A^15887)
# 100× Compound preparation: • 1) Cherry pick 2 μL 10 mM compound stock to column 1 of a 384 intermediate plate • 2) Add 18 μL DMSO to column 1 to dilute compound to 1 mM. • 3) Transfer 10 μL 1 mM compound to column 1 of a LDV plate. • 2) Add 6 μl DMSO to column 2-10 of the LDV plate. • 3) Compounds undergo 3-fold serial dilution (3 μL+6 μL) in DMSO. • 4) Transfer 120 nL compound solution to assay plate.
# Prepare complete nuclear receptor buffer K by adding 1 M DTT to nuclear receptor buffer K for a final concentration of 5 mM DTT. Complete nuclear receptor buffer K must be prepared fresh daily. Prepare 2× protein solution using complete nuclear receptor buffer K containing 8 nM ERα_LBD (GST) and 4 nM Tb Anti-GST. Then, prepare 2× Fluormone ES2 Green tracer (6 nM) using complete nuclear receptor buffer K. Add 6 μL 2× Fluormone ES2 green tracer into a compound plate (PerkinElmer 6008289) by dragonfly with one-tips-addition. Subsequently, add 6 μL 2× protein solution into the plate. Briefly and gently mix the 384-well plate on a plate shaker and incubate at room temperature protected from light for 60 min. The plate is sealed with a cover to minimize evaporation. Read the plate at wavelengths of 520 nm and 495 nm. Calculate the TR-FRET ratio by dividing the emission signal at 520 nm by the emission signal at 495 nm. Generate a binding curve by plotting the emission ratio vs. the log [ligand]. To determine the IC50 value, fit the data using XL-fit for a sigmoidal dose-response.
# [5] = test system: MCF-7 cells; test: CellTiter-Glo (CTG) cell proliferation assay in MCF-7 cells; assay type: cell-based; settings: Homo sapiens, MCF7, 144 h, Day 6
# From the text: as §1, §2
# [6] = biological target: T3, CRBN/DDB1 (Homo sapiens, UniProt Q96SW2); assay type: binding; settings: HTRF, Cy5-labeled Thalidomide probe
# T3 construct: purchased Wuxi RP210521GA
# Experimental: The binding potency was determined using HTRF assay technology (Perkin Elmer). Compounds were serially diluted in DMSO and 0.2 μL volume was transferred to white 384-well plate.
# [7] = MCF7, read-out: ER MCF7 ICW Dmax (%)
# [8] = MCF7, MCF-7 cells, 16 hrs, read-out: ER MCF7 ICW Dmax (%)
# T3 sequence (Q96SW2 whole entry): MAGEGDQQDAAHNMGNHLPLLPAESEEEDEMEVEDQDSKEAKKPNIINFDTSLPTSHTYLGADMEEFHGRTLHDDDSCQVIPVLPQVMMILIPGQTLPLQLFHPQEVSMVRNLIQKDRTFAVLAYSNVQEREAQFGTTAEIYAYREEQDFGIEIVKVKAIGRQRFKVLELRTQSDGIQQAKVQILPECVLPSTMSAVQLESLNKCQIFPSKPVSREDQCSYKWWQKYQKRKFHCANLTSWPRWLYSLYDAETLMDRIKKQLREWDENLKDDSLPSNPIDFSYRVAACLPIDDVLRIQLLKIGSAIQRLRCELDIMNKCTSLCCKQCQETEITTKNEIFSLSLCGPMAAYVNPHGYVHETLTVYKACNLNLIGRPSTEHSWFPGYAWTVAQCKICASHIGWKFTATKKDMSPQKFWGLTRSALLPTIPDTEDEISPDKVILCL
# T3 sequence (Q16531 whole entry partner): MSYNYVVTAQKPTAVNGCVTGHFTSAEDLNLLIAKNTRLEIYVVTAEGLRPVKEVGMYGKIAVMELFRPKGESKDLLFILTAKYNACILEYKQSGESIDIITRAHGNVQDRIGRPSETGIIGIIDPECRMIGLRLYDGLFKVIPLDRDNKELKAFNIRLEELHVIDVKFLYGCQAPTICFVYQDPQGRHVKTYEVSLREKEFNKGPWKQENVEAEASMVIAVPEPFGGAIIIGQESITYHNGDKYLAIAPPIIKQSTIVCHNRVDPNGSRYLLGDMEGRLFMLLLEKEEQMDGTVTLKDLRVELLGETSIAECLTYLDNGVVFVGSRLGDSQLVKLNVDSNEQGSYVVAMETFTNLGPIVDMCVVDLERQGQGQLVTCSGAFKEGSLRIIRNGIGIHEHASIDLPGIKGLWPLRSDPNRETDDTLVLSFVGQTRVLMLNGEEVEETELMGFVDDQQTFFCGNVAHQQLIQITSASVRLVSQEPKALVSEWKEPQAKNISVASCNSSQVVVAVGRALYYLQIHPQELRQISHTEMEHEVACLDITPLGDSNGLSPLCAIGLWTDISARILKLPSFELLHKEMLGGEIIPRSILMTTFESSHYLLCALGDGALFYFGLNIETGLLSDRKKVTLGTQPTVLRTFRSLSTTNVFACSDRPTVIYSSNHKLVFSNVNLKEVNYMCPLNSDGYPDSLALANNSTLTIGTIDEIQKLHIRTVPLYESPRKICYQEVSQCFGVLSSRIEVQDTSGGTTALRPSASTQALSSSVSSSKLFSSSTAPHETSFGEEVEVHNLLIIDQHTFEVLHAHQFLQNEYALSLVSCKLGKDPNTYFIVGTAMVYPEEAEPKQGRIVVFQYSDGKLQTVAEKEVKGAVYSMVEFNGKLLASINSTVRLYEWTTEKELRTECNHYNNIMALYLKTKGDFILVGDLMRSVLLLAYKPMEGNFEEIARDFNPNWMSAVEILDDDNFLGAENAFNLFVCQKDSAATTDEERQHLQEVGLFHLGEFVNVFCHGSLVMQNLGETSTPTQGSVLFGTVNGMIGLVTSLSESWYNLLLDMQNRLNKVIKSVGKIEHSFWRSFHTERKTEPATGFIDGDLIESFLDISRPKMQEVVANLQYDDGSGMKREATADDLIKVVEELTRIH
Compound,"Dmax [1, 7]",DC50 ([1]; 16 hrs),"DC50 ([2]; T47D cells, 16 hrs)","Dmax ([2]; T47D cells, 16 hrs)",pIC50 [3],pIC50 [4],pIC50 [5],ER MCF7 ICW Dmax (%) ([1]; 16 hrs),"ER T47D ICW Dmax (%) ([2]; T47D cells, 16 hrs)",pIC50 [6],"Dmax [1, 8]",Dmax [2]
"C[C@@H]1Cc2c(ccc3[nH]ncc23)[C@H](c2ccc(N3CCC(CN4CCN5c6ccc7c(c6OC[C@H]5C4)CN([C@H]4CCC(=O)NC4=O)C7=O)CC3)nc2)N1CC(F)(F)F [Compound A19, (S)-3-((R)-7-((1-(5-((6R,8R)-8-methyl-7-(2,2,2-trifluoroethyl)-6,7,8,9-tetrahydro-3H-pyrazolo[4,3-f]isoquinolin-6-yl)pyridin-2-yl)piperidin-4-yl)methyl)-1-oxo-1,3,5,5a,6,7,8,9-octahydro-2H-pyrazino[1′,2′: 4,5][1,4]oxazino[2,3-e]isoindol-2-yl)piperidine-2,6-dione]",50 to 75%,< 1 nM,< 1 nM,50 to 75%,> 8.00,> 8.00,> 8.00,,,,,
"C[C@@H]1Cc2c(ccc3[nH]ncc23)[C@@H](c2ccc(N3CC4(CCC(CN5CCN6c7ccc8c(c7OC[C@H]6C5)CN([C@H]5CCC(=O)NC5=O)C8=O)CC4)C3)nc2)N1CC(F)(F)F [Compound A17, (S)-3-((R)-7-((2-(5-((6S,8R)-8-methyl-7-(2,2,2-trifluoroethyl)-6,7,8,9-tetrahydro-3H-pyrazolo[4,3-f]isoquinolin-6-yl)pyridin-2-yl)-2-azaspiro[3.5]nonan-7-yl)methyl)-1-oxo-1,3,5,5a,6,7,8,9-octahydro-2H-pyrazino[1′,2′: 4,5][1,4]oxazino[2,3-e]isoindol-2-yl)piperidine-2,6-dione]",> 75%,< 1 nM,< 1 nM,> 75%,7.30 to 8.00,> 8.00,< 7.30,,,,,
"COc1cc(N2CCC(CN3CCN4c5ccc6c(c5OC[C@H]4C3)CN(C3CCC(=O)NC3=O)C6=O)CC2)ccc1[C@@H]1c2ccc3[nH]ncc3c2C[C@@H](C)N1CC(F)F (stereo partly drawn) [Compound A6, 3-((R)-7-((1-(4-((6S,8R)-7-(2,2-difluoroethyl)-8-methyl-6,7,8,9-tetrahydro-3H-pyrazolo[4,3-f]isoquinolin-6-yl)-3-methoxyphenyl)piperidin-4-yl)methyl)-1-oxo-1,3,5,5a,6,7,8,9-octahydro-2H-pyrazino[1′,2′:4,5][1,4]oxazino[2,3-e]isoindol-2-yl)piperidine-2,6-dione]",,< 1 nM,< 1 nM,,> 8.00,,> 8.00,B (“B”: >50% and <75%),B (“B”: >50% and <75%),6.30 to 7.30,,
"C[C@@H]1Cc2c(ccc3[nH]ncc23)[C@@H](c2ccc(N3CCC4(CC3)CC(CN3CCN5c6ccc7c(c6OC[C@H]5C3)CN([C@H]3CCC(=O)NC3=O)C7=O)C4)cn2)N1CC1(F)CC1 [Compound A4, (S)-3-((R)-7-((7-(6-((6S,8R)-7-((1-fluorocyclopropyl)methyl)-8-methyl-6,7,8,9-tetrahydro-3H-pyrazolo[4,3-f]isoquinolin-6-yl)pyridin-3-yl)-7-azaspiro[3.5]nonan-2-yl)methyl)-1-oxo-1,3,5,5a,6,7,8,9-octahydro-2H-pyrazino[1′,2′:4,5][1,4]oxazino[2,3-e]isoindol-2-yl)piperidine-2,6-dione]",,< 1 nM,< 1 nM,> 75%,,> 8.00,,,,> 7.30,50 to 75%,
"COc1cc(N2CCC(CN3CCN4c5ccc6c(c5OCC4C3)CN(C3CCC(=O)NC3=O)C6=O)CC2)ccc1C1c2ccc3[nH]ncc3c2CC(C)N1CC(F)F (stereo in doubt) [Compound A8, (R)-3-((S)-7-((1-(4-((6R,8S)-7-(2,2-difluoroethyl)-8-methyl-6,7,8,9-tetrahydro-3H-pyrazolo[4,3-f]isoquinolin-6-yl)-3-methoxyphenyl)piperidin-4-yl)methyl)-1-oxo-1,3,5,5a,6,7,8,9-octahydro-2H-pyrazino[1′,2′:4,5][1,4]oxazino[2,3-e]isoindol-2-yl)piperidine-2,6-dione]",,< 1 nM,< 1 nM,,,≤ 8.00,,A (“A”: >=75%),A (“A”: >=75%),5.30 to 6.30,,
"C[C@@H]1Cc2c(ccc3[nH]ncc23)[C@@H](c2ccc(N3CCC4(CC3)CC(CN3CCC5(CC3)COc3cc6c(cc35)CN([C@H]3CCC(=O)NC3=O)C6=O)C4)cn2)N1CC1(F)CC1 [Compound A5, (S)-3-(1′-((7-(6-((6S,8R)-7-((1-fluorocyclopropyl)methyl)-8-methyl-6,7,8,9-tetrahydro-3H-pyrazolo[4,3-f]isoquinolin-6-yl)pyridin-3-yl)-7-azaspiro[3.5]nonan-2-yl)methyl)-7-oxo-5,7-dihydro-2H,6H-spiro[furo[2,3-f]isoindole-3,4′-piperidin]-6-yl)piperidine-2,6-dione]",50 to 75%,< 1 nM,< 1 nM,,,> 8.00,,,,6.30 to 7.30,,50 to 75%
"C[C@@H]1Cc2c(ccc3[nH]ncc23)[C@@H](c2ccc(N3CCC4(CC3)CC(CN3CCN5c6ccc7c(c6OC[C@H]5C3)CN([C@H]3CCC(=O)NC3=O)C7=O)CO4)nc2)N1CC(F)(F)F (stereo partly drawn) [Compound A22, (3S)-3-((5aR)-7-((8-(5-((6S,8R)-8-methyl-7-(2,2,2-trifluoroethyl)-6,7,8,9-tetrahydro-3H-pyrazolo[4,3-f]isoquinolin-6-yl)pyridin-2-yl)-1-oxa-8-azaspiro[4.5]decan-3-yl)methyl)-1-oxo-1,3,5,5a,6,7,8,9-octahydro-2H-pyrazino[1′,2′:4,5][1,4]oxazino[2,3-e]isoindol-2-yl)piperidine-2,6-dione]",,< 1 nM,< 1 nM,50 to 75%,,> 8.00,,,,6.30 to 7.30,50 to 75%,
"C[C@@H]1Cc2c(ccc3[nH]ncc23)C(c2ccc(N3CCC4(CC3)CC(CN3CCN5c6ccc7c(c6OC[C@H]5C3)CN([C@H]3CCC(=O)NC3=O)C7=O)C4)nc2)N1CC(F)(F)F (stereo in doubt) [Compound A25, (S)-3-((R)-7-((7-(5-((6S,8R)-8-methyl-7-(2,2,2-trifluoroethyl)-6,7,8,9-tetrahydro-3H-pyrazolo[4,3-f]isoquinolin-6-yl)pyridin-2-yl)-7-azaspiro[3.5]nonan-2-yl)methyl)-1-oxo-1,3,5,5a,6,7,8,9-octahydro-2H-pyrazino[1′,2′: 4,5][1,4]oxazino[2,3-e]isoindol-2-yl)piperidine-2,6-dione]",> 75%,< 1 nM,< 1 nM,> 75%,,> 8.00,,,,,,
